From ChEMBL document CHEMBL4813950, “Comparing the efficacy and selectivity of Ck2 inhibitors. A phosphoproteomics approach” (Eur J Med Chem, 2021)
The source made the active and inactive calls. The rule behind the calls is not given here.

Experiments:
Assay type in all cases: cell-based
[1] = target: WD repeat and HMG-box DNA-binding protein 1 (Mus musculus) (UniProt P59328); test: Inhibition of Wdhd1 in mouse C2C12 cells assessed as reduction in phospho-sites occupancy at 4 uM after 5 hrs by SILAC based LC-MS/MS analysis relative to control
[2] = target: Phosducin-like protein 3 (Mus musculus) (UniProt Q8BVF2); test: Inhibition of Phosducin-like protein 3 in mouse C2C12 cells assessed as reduction in phospho-sites occupancy at 4 uM after 5 hrs by SILAC based LC-MS/MS analysis relative to control
[3] = target: Acetyl-CoA carboxylase 1 (Mus musculus) (UniProt Q5SWU9); test: Inhibition of Acetyl-CoA carboxylase 1 in mouse C2C12 cells assessed as reduction in phospho-sites occupancy at 4 uM after 5 hrs by SILAC based LC-MS/MS analysis relative to control
[4] = target: Coiled-coil domain-containing protein 43 (Mus musculus) (UniProt Q9CR29); test: Inhibition of Ccdc43 in mouse C2C12 cells assessed as reduction in phospho-sites occupancy at 4 uM after 5 hrs by SILAC based LC-MS/MS analysis relative to control
[5] = target: tRNA (guanine(26)-N(2))-dimethyltransferase (Mus musculus) (UniProt Q3TX08); test: Inhibition of Trmt1 in mouse C2C12 cells assessed as reduction in phospho-sites occupancy at 4 uM after 5 hrs by SILAC based LC-MS/MS analysis relative to control
[6] = target: Chaperone Ric-8A (Mus musculus) (UniProt Q3TIR3); test: Inhibition of Ric8a in mouse C2C12 cells assessed as reduction in phospho-sites occupancy at 4 uM after 5 hrs by SILAC based LC-MS/MS analysis relative to control
[7] = target: Nucleolar protein 56 (Mus musculus) (UniProt Q9D6Z1); test: Inhibition of Nop56 in mouse C2C12 cells assessed as reduction in phospho-sites occupancy at 4 uM after 5 hrs by SILAC based LC-MS/MS analysis relative to control
[8] = target: Protein IMPACT (Mus musculus) (UniProt O55091); test: Inhibition of Impact in mouse C2C12 cells assessed as reduction in phospho-sites occupancy at 4 uM after 5 hrs by SILAC based LC-MS/MS analysis relative to control
[9] = target: Charged multivesicular body protein 3 (Mus musculus) (UniProt Q9CQ10); test: Inhibition of Chmp3 in mouse C2C12 cells assessed as reduction in phospho-sites occupancy at 4 uM after 5 hrs by SILAC based LC-MS/MS analysis relative to control
[10] = target: Eukaryotic translation initiation factor 5B (Mus musculus) (UniProt Q05D44); test: Inhibition of eukaryotic translation initiation factor 5B in mouse C2C12 cells assessed as reduction in phospho-sites occupancy at 4 uM after 5 hrs by SILAC based LC-MS/MS analysis relative to control
[11] = target: SWI/SNF-related matrix-associated actin-dependent regulator of chromatin subfamily A containing DEAD/H box 1 (Mus musculus) (UniProt Q04692); test: Inhibition of Smarcad1 in mouse C2C12 cells assessed as reduction in phospho-sites occupancy at 4 uM after 5 hrs by SILAC based LC-MS/MS analysis relative to control
[12] = target: Serine/arginine repetitive matrix protein 1 (Mus musculus) (UniProt Q52KI8); test: Inhibition of Srrm1 in mouse C2C12 cells assessed as reduction in phospho-sites occupancy at 4 uM after 5 hrs by SILAC based LC-MS/MS analysis relative to control
[13] = target: Transcriptional regulator ATRX (Mus musculus) (UniProt Q61687); test: Inhibition of ATRX in mouse C2C12 cells assessed as reduction in phospho-sites occupancy at 4 uM after 5 hrs by SILAC based LC-MS/MS analysis relative to control
[14] = target: E3 ubiquitin-protein ligase NEDD4 (Mus musculus) (UniProt P46935); test: Inhibition of Nedd4 in mouse C2C12 cells assessed as reduction in phospho-sites occupancy at 4 uM after 5 hrs by SILAC based LC-MS/MS analysis relative to control
[15] = target: E3 ubiquitin-protein ligase Praja-1 (Mus musculus) (UniProt O55176); test: Inhibition of Pja1 in mouse C2C12 cells assessed as reduction in phospho-sites occupancy at 4 uM after 5 hrs by SILAC based LC-MS/MS analysis relative to control
[16] = target: Casein kinase 2 (Mus musculus) (UniProt Q60737+P67871+O54833+Q8CH19); test: Inhibition of CK2 in mouse C2C12 cells assessed as reduction in CDC37 phosphorylation at S13 residues at 1 to 4 uM by Western blot analysis; conditions: dose 1-4 µM
[17] = target: Kinectin (Mus musculus) (UniProt Q61595); test: Inhibition of Ktn1 in mouse C2C12 cells assessed as reduction in phospho-sites occupancy at 4 uM after 5 hrs by SILAC based LC-MS/MS analysis relative to control
[18] = target: Catenin alpha-1 (Mus musculus) (UniProt P26231); test: Inhibition of catenin alpha-1 in mouse C2C12 cells assessed as reduction in phospho-sites occupancy at 4 uM after 5 hrs by SILAC based LC-MS/MS analysis relative to control
[19] = target: Band 4.1-like protein 1 (Mus musculus) (UniProt Q9Z2H5); test: Inhibition of Epb41l1in mouse C2C12 cells assessed as reduction in phospho-sites occupancy at 4 uM after 5 hrs by SILAC based LC-MS/MS analysis relative to control
[20] = target: DNA topoisomerase 2-beta (Mus musculus) (UniProt Q64511); test: Inhibition of DNA topoisomerase 2-beta in mouse C2C12 cells assessed as reduction in phospho-sites occupancy at 4 uM after 5 hrs by SILAC based LC-MS/MS analysis relative to control
[21] = target: Serine/threonine-protein phosphatase 6 regulatory subunit 3 (Mus musculus) (UniProt Q922D4); test: Inhibition of Ppp6r3 in mouse C2C12 cells assessed as reduction in phospho-sites occupancy at 4 uM after 5 hrs by SILAC based LC-MS/MS analysis relative to control
[22] = target: Centrosomal protein of 170 kDa (Mus musculus) (UniProt Q6A065); test: Inhibition of Cep170 in mouse C2C12 cells assessed as reduction in phospho-sites occupancy at 4 uM after 5 hrs by SILAC based LC-MS/MS analysis relative to control
[23] = target: Small ubiquitin-related modifier 1 (Mus musculus) (UniProt P63166); test: Inhibition of Sumo1 in mouse C2C12 cells assessed as reduction in phospho-sites occupancy at 4 uM after 5 hrs by SILAC based LC-MS/MS analysis relative to control
[24] = target: Fermitin family homolog 2 (Mus musculus) (UniProt Q8CIB5); test: Inhibition of Fermt2 in mouse C2C12 cells assessed as reduction in phospho-sites occupancy at 4 uM after 5 hrs by SILAC based LC-MS/MS analysis relative to control

- fold change (FC) [1]: 1.66
- fold change (FC) [2]: 4.01
- fold change (FC) [3]: 2.73
- fold change (FC) [4]: 2.68
- fold change (FC) [5]: 1.86
- fold change (FC) [6]: 1.93
- fold change (FC) [7]: 1.5
- fold change (FC) [8]: 3.44
- fold change (FC) [9]: 3.19
- fold change (FC) [10]: 1.55
- fold change (FC) [11]: 1.64
- fold change (FC) [12]: 2.36
- fold change (FC) [13]: 2.83
- fold change (FC) [14]: 5.83
- fold change (FC) [15]: 2.53
- inhibition [16]: Active
- fold change (FC) [17]: 1.98
- fold change (FC) [18]: 1.59
- fold change (FC) [19]: 2.85
- fold change (FC) [20]: 1.6
- fold change (FC) [21]: 1.75
- fold change (FC) [22]: 1.86
- fold change (FC) [23]: 1.75
- fold change (FC) [24]: 3.05
Compound: COc1cc(/C=N/n2c(SC)nnc2-c2ccccc2)c(Br)cc1O
